One may read the Kd as a measure of binding affinity in units of concentration. Lower therefore signals tighter binding.

Results on two compounds are retold here after PMC9582717 (The Journal of Biological Chemistry, 2022).

SMILES strings stand for the structures.

The target of this test is T1, SmChiP (chitoporin) (Serratia marcescens, UniProt I7GPX7).
T1 sequence (I7GPX7 28-467): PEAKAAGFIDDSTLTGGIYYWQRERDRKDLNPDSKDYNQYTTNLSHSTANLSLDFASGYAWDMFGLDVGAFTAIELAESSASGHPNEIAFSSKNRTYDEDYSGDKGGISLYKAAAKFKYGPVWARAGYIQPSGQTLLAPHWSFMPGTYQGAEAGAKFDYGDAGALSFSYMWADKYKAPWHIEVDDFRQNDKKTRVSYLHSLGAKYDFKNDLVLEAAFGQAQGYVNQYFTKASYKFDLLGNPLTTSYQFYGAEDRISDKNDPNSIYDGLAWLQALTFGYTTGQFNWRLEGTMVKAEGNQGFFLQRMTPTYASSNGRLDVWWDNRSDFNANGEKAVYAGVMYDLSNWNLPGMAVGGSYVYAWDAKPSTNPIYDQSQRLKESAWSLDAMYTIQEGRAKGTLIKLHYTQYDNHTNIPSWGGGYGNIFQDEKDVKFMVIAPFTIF
As to the kind of experiment: isothermal titration calorimetry. As to conditions: detergent-solubilized protein; one-site binding model. (ITC needs no label: the signal is the heat of the interaction.)

In turn, `CC(=O)N[C@H]1[C@H](O[C@H]2[C@H](O)[C@@H](NC(C)=O)[C@H](O[C@H]3[C@H](O)[C@@H](NC(C)=O)C(O)O[C@@H]3CO)O[C@@H]2CO)O[C@H](CO)[C@@H](O[C@@H]2O[C@H](CO)[C@@H](O[C@@H]3O[C@H](CO)[C@@H](O)[C@H](O)[C@H]3NC(C)=O)[C@H](O)[C@H]2NC(C)=O)[C@@H]1O` (some centres unmarked) [chitopentaose] came in with a Kd of 23 ± 2 µM.
Take `CC(=O)N[C@H]1[C@H](O[C@H]2[C@H](O)[C@@H](NC(C)=O)[C@H](O[C@H]3[C@H](O)[C@@H](NC(C)=O)C(O)O[C@@H]3CO)O[C@@H]2CO)O[C@H](CO)[C@@H](O[C@@H]2O[C@H](CO)[C@@H](O[C@@H]3O[C@H](CO)[C@@H](O[C@@H]4O[C@H](CO)[C@@H](O)[C@H](O)[C@H]4NC(C)=O)[C@H](O)[C@H]3NC(C)=O)[C@H](O)[C@H]2NC(C)=O)[C@@H]1O` (some centres unmarked) [chitohexaose]: the Kd is 17 ± 0.6 µM.
